Consider two compounds from patent US20060057101A1, “German cockroach attractant” (priority 2004, published 2006).

The subject of assay [1] is brownbanded cockroach males. As to conditions: cited from earlier work.
The test system of another assay is male German cockroaches. The experiment in a line: two-choice olfactometer behavioral assay. It counts as in vivo, Blattella germanica. The protocol:
FIG. 3 is a graphic representation of behavioral responses of male German cockroaches to one female equivalent of a crude extract of many virgin females and to various doses of the synthetic pheromone, gentisyl quinone isovalerate. The pheromone was applied in 20 μl of methylene chloride to a filter paper disc and presented to single males acclimated in the two-choice olfactometer vs. a methylene chloride control filter paper. Behavioral response is defined as quiescent males that were activated and ran out of their cage. Each assay consisted of testing 10-16 males in individual olfactometers and the assays were replicated 3-18 times. The mean responses and SEM are indicated.
FIG. 4 is a graphic representation of behavioral responses of male German cockroaches to one female equivalent of a crude extract of many virgin females and to various doses of the synthetic pheromone, gentisyl quinone isovalerate. Procedures are as in FIG. 3, but reported is the latency in seconds before males left their cages.
The biological activity of extracts and fractions was assayed both behaviorally and with an electroantennogram (“EAG”). Schal et al., “Site of Pheromone Production in Female Supella longipalpa (F.) (Dictyoptera: Blattellidae): Behavioral, Electrophysiological, and Morphological Evidence,” Annals Entomol. Soc. Amer. 85:605-611 (1992), which is hereby incorporated by reference in its entirety. For behavioral assays a two-choice olfactometer was used. Liang et al., “Effects of Pheromone Concentration and Photoperiod on the Behavioral Response Sequence to Sex Pheromone in the Male Brown-Banded Cockroach, Supella longipalpa,” J. Insect Behavior 3:211-223 (1990), and Liang et al., “Volatile Sex Pheromone in the Female German Cockroach,” Experientia 49:324-328 (1993a), which are hereby incorporated by reference in their entirety. Briefly, a straight Plexiglas tube (55 cm long and 3 cm ID) was divided along 15 cm of its upwind end and air was drawn through it at 20 cm/min. […] The percentage of insects running upwind and the latency, in seconds, before they responded were recorded.

Consider supellapyrone, for which the “increase in number of adult males trapped relative to respective controls” value in assay [1] (all treatments, field traps) was 6-28 times. The “attractiveness to males in the field” value in assay [1] (field, jar traps) was “highly attractive”.
In the case of `CC(C)CC(=O)OCC1=CC(=O)C=CC1=O` [synthetic pheromone, gentisyl quinone isovalerate], the “males responding (quiescent males activated and running out of their cage)” value in the assay on male German cockroaches (10-100 ng of the pheromone on filter paper, FIG. 3) is recorded as “More than 60%”. Besides, in the assay on male German cockroaches (doses between 10 ng and 1 μg, FIG. 4), the “latency of the male response before leaving cage” value was “shortest latency”. Moreover, in the assay on male German cockroaches (various doses on filter paper, FIG. 3), the “dose-response of male behavioral response” value was “clear dose-response”.
